Data as given in ChEMBL document CHEMBL1201862, “PubChem BioAssay data set” (2004).
The source made the active and inactive calls.

What was measured:
[1] = molecular target: FAD-linked sulfhydryl oxidase ALR (Homo sapiens, UniProt P55789); assay: ALR-catalysed DTT oxidation blockers – biochemical, H2O2 detection, luminescence, cherry-pick, dose response (AID 493248)
Cytochrome P450 3A4 = Cytochrome P450 3A4 (Homo sapiens, UniProt P08684);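 further: CYP3A4 tested as one member of a cytochrome P450 panel screen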
Cytochrome P450 2C9 = Cytochrome P450 2C9 (Homo sapiens, UniProt P11712)
[2] = viability loss in CEM21 cells – cell-based, CellTiter-Glo luminescence, cherry-picked, cytotoxicity control for viral fusion inhibitor project, dose response (AID 652042); type: functional;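 further: potency for signal decrease meaning cytotoxicity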
[3] = off-target signal loss in HeLa-CEM21 co-culture – HeLa F-luc CTL cells, cherry-picked, counter-screen for HIV-1 Env fusion inhibitor project, dose response (AID 652040); type: functional, cell-based;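 further: potency for signal decrease marking cytotoxic or nonspecific inhibition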
[4] = HIV-1 AD8 envelope cell-cell fusion blockers – cherry-pick, dose response (AID 652062); type: functional, cell-based;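 further: luciferase signal from cell-cell fusion driven by HIV-1 clade B AD8 Env; potency is for inhibitors of fusion seen as a drop in luminescence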
[5] = blockers of HIV-1 ZM109 envelope-driven cell-cell fusion – HeLa effector, CEM target cells, luciferase, cherry-pick, dose response (AID 652058); type: functional, cell-based;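 further: luciferase signal from HIV-1 Env mediated cell-cell fusion of effector and target cells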
[6] = blockers of HIV-1 envelope-mediated cell-cell fusion – cherry-pick, dose response (AID 652057); type: functional, cell-based
Cytochrome P450 1A2 = molecular target: T1, Cytochrome P450 1A2 (Homo sapiens, UniProt P05177);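 further: PubChem cytochrome P450 panel assay, CYP1A2 panel member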
T1 sequence (P05177 whole entry): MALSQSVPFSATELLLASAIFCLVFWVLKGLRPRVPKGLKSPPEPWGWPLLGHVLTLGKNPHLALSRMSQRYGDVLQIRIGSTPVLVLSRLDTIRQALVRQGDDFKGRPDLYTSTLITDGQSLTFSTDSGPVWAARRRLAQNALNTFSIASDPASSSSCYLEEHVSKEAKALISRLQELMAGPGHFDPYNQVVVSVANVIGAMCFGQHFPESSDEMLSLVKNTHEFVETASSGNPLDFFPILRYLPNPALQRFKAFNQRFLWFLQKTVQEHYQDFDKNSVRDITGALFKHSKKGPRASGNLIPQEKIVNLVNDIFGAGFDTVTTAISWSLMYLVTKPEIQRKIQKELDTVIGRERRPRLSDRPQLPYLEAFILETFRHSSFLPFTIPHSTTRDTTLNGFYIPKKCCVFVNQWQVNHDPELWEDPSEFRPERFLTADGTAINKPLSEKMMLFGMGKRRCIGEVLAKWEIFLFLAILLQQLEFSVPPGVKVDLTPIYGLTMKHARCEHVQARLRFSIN

Cytochrome P450 2D6 = Cytochrome P450 2D6 (Homo sapiens, UniProt P10635);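 further: CYP2D6 member of a cytochrome P450 panel assay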
[7] = molecular target: T2, Heat shock factor protein 1 (Mus musculus, UniProt P38532); assay: enhancement of HSF1-driven luciferase signal – cell-based, NIH3T3, luminescence, dose retest, confirmation (AID 435004); type: functional;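 further: stress induced by proteasome inhibitor MG132 added 30 min after compound; luciferase reporter driven by HSF1 response element in NIH3T3 cells; actives raise luminescence as potentiators of the MG132 stress response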
T2 sequence (P38532 whole entry): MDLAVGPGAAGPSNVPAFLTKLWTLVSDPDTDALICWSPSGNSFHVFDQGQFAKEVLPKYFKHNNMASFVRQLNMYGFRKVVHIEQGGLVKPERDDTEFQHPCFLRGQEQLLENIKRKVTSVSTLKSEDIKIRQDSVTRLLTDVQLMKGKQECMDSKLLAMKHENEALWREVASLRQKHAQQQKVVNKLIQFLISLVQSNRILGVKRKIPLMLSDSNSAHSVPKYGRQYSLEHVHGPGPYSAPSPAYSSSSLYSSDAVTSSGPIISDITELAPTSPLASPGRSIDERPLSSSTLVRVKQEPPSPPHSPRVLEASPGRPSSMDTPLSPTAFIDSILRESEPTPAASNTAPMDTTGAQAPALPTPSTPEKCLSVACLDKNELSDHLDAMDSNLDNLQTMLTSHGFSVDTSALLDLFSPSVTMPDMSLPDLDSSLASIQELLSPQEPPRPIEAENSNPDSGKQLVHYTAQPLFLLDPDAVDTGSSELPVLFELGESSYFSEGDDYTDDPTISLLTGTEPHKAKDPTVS

[8] = molecular target: T3, Replicative DNA helicase DnaB (Mycobacterium tuberculosis, UniProt P9WMR3); assay: DnaB intein splicing inhibitors, dose response, biochemical, cell-free fluorescence (AID 449749); type: functional
T3 sequence (P9WMR3 whole entry): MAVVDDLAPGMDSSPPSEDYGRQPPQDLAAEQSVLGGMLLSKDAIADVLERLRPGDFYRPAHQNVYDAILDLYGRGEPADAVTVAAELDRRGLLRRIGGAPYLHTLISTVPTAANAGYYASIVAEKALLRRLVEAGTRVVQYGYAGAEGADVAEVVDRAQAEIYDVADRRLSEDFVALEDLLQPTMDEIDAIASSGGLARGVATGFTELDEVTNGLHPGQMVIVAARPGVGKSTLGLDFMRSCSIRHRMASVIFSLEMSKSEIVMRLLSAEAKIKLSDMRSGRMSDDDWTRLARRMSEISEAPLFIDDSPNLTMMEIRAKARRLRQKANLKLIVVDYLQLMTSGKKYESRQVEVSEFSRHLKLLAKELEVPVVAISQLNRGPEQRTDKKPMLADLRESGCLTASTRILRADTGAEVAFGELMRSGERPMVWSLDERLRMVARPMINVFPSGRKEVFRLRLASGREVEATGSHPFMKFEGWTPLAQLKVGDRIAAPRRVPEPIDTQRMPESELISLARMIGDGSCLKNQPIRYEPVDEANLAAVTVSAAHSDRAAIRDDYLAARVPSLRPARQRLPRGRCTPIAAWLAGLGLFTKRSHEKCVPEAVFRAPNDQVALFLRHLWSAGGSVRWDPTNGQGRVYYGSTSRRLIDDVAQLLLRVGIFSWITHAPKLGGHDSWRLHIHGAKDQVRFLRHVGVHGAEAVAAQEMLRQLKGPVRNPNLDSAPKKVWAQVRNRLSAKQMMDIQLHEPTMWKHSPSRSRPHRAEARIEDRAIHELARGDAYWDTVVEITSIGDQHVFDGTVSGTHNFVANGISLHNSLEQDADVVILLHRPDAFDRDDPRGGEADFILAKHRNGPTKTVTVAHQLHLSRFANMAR

Protein RecA = molecular target: T4, Protein RecA (Mycobacterium tuberculosis, UniProt P9WHJ3); assay: Fluorescence Cell-Free Homogeneous Dose Retest to Identify Inhibitors of RecA-Intein Splicing Activity. [Related pubchem assays (depositor defined):AID2097, AID2223, AID489010, AID492950]; type: functional
T4 sequence (P9WHJ3 whole entry): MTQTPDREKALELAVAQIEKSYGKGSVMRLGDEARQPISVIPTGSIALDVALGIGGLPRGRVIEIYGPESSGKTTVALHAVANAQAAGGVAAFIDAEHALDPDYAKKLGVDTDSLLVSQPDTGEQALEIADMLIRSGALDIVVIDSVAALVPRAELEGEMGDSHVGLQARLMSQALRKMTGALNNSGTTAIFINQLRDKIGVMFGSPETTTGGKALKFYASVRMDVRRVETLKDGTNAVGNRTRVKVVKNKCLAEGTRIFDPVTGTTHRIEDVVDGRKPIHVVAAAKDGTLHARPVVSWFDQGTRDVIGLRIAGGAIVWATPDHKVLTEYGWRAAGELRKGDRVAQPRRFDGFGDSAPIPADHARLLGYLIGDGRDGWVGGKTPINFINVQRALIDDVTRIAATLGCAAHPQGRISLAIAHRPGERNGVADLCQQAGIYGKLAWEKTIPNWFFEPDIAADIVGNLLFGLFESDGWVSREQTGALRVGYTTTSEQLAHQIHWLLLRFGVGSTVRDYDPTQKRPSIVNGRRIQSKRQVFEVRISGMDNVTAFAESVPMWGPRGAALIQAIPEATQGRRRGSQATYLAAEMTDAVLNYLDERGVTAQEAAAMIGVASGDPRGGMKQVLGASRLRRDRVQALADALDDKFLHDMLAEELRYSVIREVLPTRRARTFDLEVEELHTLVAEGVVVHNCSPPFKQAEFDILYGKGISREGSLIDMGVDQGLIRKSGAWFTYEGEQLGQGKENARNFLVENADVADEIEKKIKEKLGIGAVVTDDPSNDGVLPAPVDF

Cytochrome P450 2C19 = Cytochrome P450 2C19 (Homo sapiens, UniProt P33261); assay: Cytochrome panel assay with activity outcomes. Panel member name: p450-cyp2c19 Compounds with AC50 equal or less than 10 uM are considered active; type: functional
INS1 = assay: INS-1E survival protection against cytokine death – cell-based, luminescence, retest, dose response (AID 449756); type: functional; details: Rattus norvegicus;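 further: cell death triggered by IL-1 beta plus TNF-alpha plus IFN-gamma mixture; protective hits raise ATP signal compared with cytokine alone wells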
[9] = microbe, parasite or virus in culture; type: functional; details: Mycobacterium tuberculosis

FAD-linked sulfhydryl oxidase ALR, sequence (P55789 whole entry): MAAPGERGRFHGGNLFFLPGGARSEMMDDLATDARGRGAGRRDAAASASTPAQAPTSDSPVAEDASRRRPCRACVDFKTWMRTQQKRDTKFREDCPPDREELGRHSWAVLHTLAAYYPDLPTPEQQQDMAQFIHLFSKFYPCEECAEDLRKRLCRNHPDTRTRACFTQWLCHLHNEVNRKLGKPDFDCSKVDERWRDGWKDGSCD
Cytochrome P450 2C9, sequence (P11712 whole entry, the tested form may be a part): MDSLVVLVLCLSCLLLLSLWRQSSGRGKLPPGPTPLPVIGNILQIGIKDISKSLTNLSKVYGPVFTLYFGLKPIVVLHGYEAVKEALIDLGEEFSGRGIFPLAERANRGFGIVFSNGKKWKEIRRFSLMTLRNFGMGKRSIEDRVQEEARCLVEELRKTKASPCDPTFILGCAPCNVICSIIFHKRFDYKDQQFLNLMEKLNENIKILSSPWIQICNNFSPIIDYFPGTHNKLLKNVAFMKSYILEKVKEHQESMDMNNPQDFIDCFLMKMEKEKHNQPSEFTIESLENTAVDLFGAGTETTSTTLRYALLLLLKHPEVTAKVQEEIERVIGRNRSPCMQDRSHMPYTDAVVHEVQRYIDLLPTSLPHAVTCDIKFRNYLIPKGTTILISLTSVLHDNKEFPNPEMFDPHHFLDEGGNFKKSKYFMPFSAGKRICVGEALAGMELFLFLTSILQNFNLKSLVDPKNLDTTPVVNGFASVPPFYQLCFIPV
Cytochrome P450 2C19, sequence (P33261 whole entry): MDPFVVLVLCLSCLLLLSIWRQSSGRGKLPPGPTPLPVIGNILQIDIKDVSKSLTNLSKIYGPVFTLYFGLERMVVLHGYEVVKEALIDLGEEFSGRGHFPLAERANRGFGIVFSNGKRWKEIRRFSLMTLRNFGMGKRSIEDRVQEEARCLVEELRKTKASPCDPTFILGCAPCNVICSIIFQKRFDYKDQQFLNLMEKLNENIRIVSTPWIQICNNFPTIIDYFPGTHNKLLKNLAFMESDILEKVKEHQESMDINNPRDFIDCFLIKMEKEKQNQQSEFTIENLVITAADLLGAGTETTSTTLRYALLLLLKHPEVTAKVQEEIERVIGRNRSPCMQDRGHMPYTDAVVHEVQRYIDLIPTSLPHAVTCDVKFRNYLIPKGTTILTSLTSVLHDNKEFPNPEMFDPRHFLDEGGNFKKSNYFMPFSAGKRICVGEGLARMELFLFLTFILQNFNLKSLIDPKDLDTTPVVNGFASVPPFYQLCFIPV
Cytochrome P450 3A4, sequence (P08684 whole entry): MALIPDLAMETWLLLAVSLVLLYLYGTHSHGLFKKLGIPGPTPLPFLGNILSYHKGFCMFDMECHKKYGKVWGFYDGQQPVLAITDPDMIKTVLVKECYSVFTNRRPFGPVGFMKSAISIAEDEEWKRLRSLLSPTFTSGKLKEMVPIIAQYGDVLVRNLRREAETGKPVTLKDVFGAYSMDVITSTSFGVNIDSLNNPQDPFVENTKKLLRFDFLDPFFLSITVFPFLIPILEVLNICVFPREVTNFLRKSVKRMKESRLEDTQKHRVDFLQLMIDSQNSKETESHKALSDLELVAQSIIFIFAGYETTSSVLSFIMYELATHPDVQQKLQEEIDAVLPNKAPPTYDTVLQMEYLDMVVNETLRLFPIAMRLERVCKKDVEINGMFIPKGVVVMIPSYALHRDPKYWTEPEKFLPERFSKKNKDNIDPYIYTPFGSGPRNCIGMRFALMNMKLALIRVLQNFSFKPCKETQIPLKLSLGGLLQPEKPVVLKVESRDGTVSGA
Cytochrome P450 2D6, sequence (P10635 whole entry): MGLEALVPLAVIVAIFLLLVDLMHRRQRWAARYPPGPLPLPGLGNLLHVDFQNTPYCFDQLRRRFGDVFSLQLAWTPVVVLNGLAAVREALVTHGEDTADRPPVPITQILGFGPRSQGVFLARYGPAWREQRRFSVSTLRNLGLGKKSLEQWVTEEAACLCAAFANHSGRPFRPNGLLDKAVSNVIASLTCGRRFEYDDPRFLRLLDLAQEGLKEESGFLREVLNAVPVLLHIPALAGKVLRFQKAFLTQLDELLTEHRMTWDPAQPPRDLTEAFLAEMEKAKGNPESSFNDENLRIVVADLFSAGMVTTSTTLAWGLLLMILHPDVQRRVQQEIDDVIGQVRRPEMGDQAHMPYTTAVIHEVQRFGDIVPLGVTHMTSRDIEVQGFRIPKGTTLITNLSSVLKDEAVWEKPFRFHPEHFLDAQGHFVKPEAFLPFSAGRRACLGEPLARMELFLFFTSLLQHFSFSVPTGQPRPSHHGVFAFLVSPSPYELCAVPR

Cc1nc(C(=O)N2CCCC(Nc3ccc(C)c(C)c3)C2)cs1 (centres undefined)
AC50 [1]: 0.479 µM (active)

Cc1ccc(NC(S)=NCCN2CCOCC2)cc1C
AC50 (Cytochrome P450 3A4): 15.8 µM (inconclusive) | AC50 (Cytochrome P450 2C9): inconclusive

COc1ccccc1NC(=O)c1nn(-c2cccc(C(F)(F)F)c2)ccc1=O
AC50 (Cytochrome P450 2C9): inconclusive

CCc1ccc(CN2CCN(C(=O)c3cccc(OC)c3OC)CC2)cc1
AC50 [2]: 67.5 µM (active) | AC50 [3]: 26.2 µM (active) | AC50 [4]: 11.8 µM (active) | AC50 [5]: 2.01 µM (active) | AC50 [6]: 1.66 µM (active)

COc1ccccc1-c1cc(C(=O)Nc2cc(C)n(Cc3ccc(Cl)cc3)n2)no1
AC50 (Cytochrome P450 2C9): inconclusive | AC50 (Cytochrome P450 1A2): 0.794 µM (inconclusive) | AC50 (Cytochrome P450 2D6): 0.891 µM (inconclusive)

CC(C)Cn1c(SCC(=O)c2c(N)n(C)c(=O)n(C)c2=O)nc2ccccc21
AC50 (Cytochrome P450 2C9): inconclusive | AC50 (Cytochrome P450 1A2): 25.1 µM (inconclusive)

CC(=O)Nc1ccc2c(c1)nc1n2CCSC1
AC50 [1]: 0.34 µM (active)

Cc1ccc(S(=O)(=O)c2c(N)n(CCC(C)C)c3nc4ccccc4nc23)cc1
AC50 [2]: 22.7 µM (active) | AC50 [3]: 18.6 µM (active) | EC50 [7]: > 260 µM (inactive) | AC50 [4]: 35.4 µM (active) | AC50 [8]: > 380 µM (inactive) | AC50 [5]: 24.9 µM (active) | EC50 (Protein RecA): 3.98 µM (active) | AC50 [6]: 9.53 µM (active)

CSc1nc(O)c(Nc2cccc(Cl)c2)c(O)n1
AC50 [1]: 1.14 µM (active) | AC50 [8]: 64.9 µM (active) | EC50 (Protein RecA): 1.92 µM (active)

COc1ccccc1N1CCN(S(=O)(=O)c2cccc(F)c2)CC1
AC50 [1]: 28.8 µM (active)

Cl.OC1(c2ccc(F)cc2)CCNC1 (centres undefined)
AC50 (Cytochrome P450 2C19): inconclusive | AC50 (Cytochrome P450 2C9): inconclusive

O=C(Cc1ccccc1)N/N=C/C=C/c1cccc([N+](=O)[O-])c1
AC50 (Cytochrome P450 2C19): inconclusive | AC50 (Cytochrome P450 2C9): inconclusive | AC50 (Cytochrome P450 1A2): 15.8 µM (inconclusive)

Cc1cccc(CNc2ncnc3ccc(-c4ccc5c(c4)OCCO5)cc23)c1
AC50 [2]: 5.98 µM (active) | AC50 [3]: > 70 µM (inactive) | AC50 [4]: 8.48 µM (active) | AC50 (INS1): 7.74 µM (active) | AC50 [5]: 5.84 µM (active) | CC50 [9]: > 40 µM (active) | AC50 [6]: 27.9 µM (active)
